Test results from article PMC11735596, “Sulfoquinovosyl diacylglycerol, a component of Holy Basil Ocimum tenuiflorum, inhibits the activity of the SARS-CoV-2 main protease and viral replication in vitro” (Journal of Natural Medicines, 2024).
pEC50: −log10 of the molar value.

How the values were obtained:
[1] = tested on: VeroE6/TMPRSS2 cells
[2] = tested on: SARS-CoV-2 (WK-521 strain); assay: Anti-SARS-CoV-2 assay in infected VeroE6/TMPRSS2 cells (tetrazolium dye method); settings: for Protection of infected cells from virus-induced cell death (in words): MOI 0.002, 3 days
[3] = in vitro; settings: African green monkey
[4] = tested on: SARS-CoV-2 spike S1 and ACE2; set-up: method as in PMID 34677731; settings: cited from earlier work

CC/C=C\C/C=C\C/C=C\CCCCCCCC(=O)OC[C@H](CO[C@H]1O[C@H](CS(=O)(=O)O)[C@@H](O)[C@H](O)[C@H]1O)OC(=O)CCCCCCC/C=C\C/C=C\C/C=C\CC [Compound 1, 1,2-di-(9Z,12Z,15Z-octadecatrienoyl)-3-(6′-sulfo-α-D-quinovosyl)-sn-glycerol]
Cytotoxicity (in words) [1]: did not show apparent cytotoxicity | Protection of infected cells from virus-induced cell death (in words) [2]: dose-dependent protection | pEC50 ([2]; read-out: EC50, suppression of SARS-CoV-2 replication, MOI 0.002, 3 days): 4.29 | CC50 [3]: > 100 µM

CC/C=C\C/C=C\C/C=C\CCCCCCCC(=O)OC [Compound 5, Methyl linolenate, reference compound]
Protection of infected cells from virus-induced cell death (in words) [2]: inhibited cell death caused by SARS-CoV-2 in a concentration-dependent manner

CC/C=C\C/C=C\C/C=C\CCCCCCCC(=O)OC[C@H](CO[C@@H]1O[C@H](CO[C@H]2O[C@H](CO)[C@H](O)[C@H](O)[C@H]2O)[C@H](O)[C@H](O)[C@H]1O)OC(=O)CCCCCCC/C=C\C/C=C\C/C=C\CC [Compound 2, 1,2-di-(9Z,12Z,15Z-octadecatrienoyl)-3-O-(α-D-galactosyl-1-6-β-D-galactosyl)-sn-glycerol]
Protection of infected cells from virus-induced cell death (in words) [2]: inhibited cell death caused by SARS-CoV-2 in a concentration-dependent manner

C=CCc1ccc(O)c(OC)c1 [eugenol]
Effect on interaction between SARS-CoV-2 spike S1 and ACE2 (in words) [4]: inhibited the interaction between SARS-CoV-2 spike S1 and ACE2
